Measurements from PMC9683047, “Design, synthesis and biological evaluation of 4-aminoquinoline derivatives as receptor-interacting protein kinase 2 (RIPK2) inhibitors” (Journal of Enzyme Inhibition and Medicinal Chemistry, 2022).

Columns and labels:
[1] = system: MDP-induced TNF-α secretion in Raw264.7; assay: TNF-α secretion in MDP-induced Raw264.7 (ELISA); assay type: cell-based, mouse; settings: Raw264.7, compounds 1 h then L18-MDP 20 µg/mL 24 h, series concentration
Description: Raw 264.7 was cultured in DMEM containing 10% (w/v) foetal bovine serum (FBS). Cell were seeded at a density of 1 × 10^5 cells/well in a 48 well plate overnight, then cells were treated with different concentrations of compounds for1h, following by stimulated with L18-MDP (20 µg/mL, Invivogen) for 24 h. The Cell supernatants were harvested for enzyme-linked immunosorbent assay (ELISA).
TNFα commercial ELISA kits (DAKEWE) were used to detect TNFα in cell culture supernatants according to the manufacturer’s instructions. The concentration of cytokines was determined using multiwell spectrophotometer (SpetraMAX PLUS, Molecular Devices).

ALK(h) = biological target: T1, ALK(h) (Homo sapiens, UniProt Q9UM73); assay: Kinase selectivity panel: ALK; assay type: biochemical; settings: 1 µM
T1 construct: purchased Eurofins (Millipore) KinaseProfiler Diversity Panel
Description: (§1) To confirm the anti-inflammatory effect was caused by RIPK2 inhibition, compound 14 was subjected to kinase selectivity evaluation (Figure 4). Kinase selectivity profile of compound 14 as shown by the diversity kinase Panel screen against 70 kinases assayed at 1 µM. Among all tested 70 kinases, only five were inhibited over 90% at 1 µM including Fyn, Lyn, BTK, Abl and RIPK2. Three kinases including KDR, CDK9 and LOK were inhibited 50–90% at 1 µM.

BTK(h) = biological target: T2, BTK(h) (Homo sapiens, UniProt Q06187); assay: Kinase selectivity panel: BTK; assay type: biochemical
T2 construct: purchased Eurofins (Millipore) KinaseProfiler Diversity Panel
Description: as §1

CDK7/cyclinH/MAT1(h) = biological target: T3, CDK7/cyclinH/MAT1(h) (Homo sapiens, UniProt P50613); assay: Kinase selectivity panel: CDK7/cyclinH/MAT1; assay type: biochemical
T3 construct: purchased Eurofins (Millipore) KinaseProfiler Diversity Panel
Description: as §1

eEF-2K(h) = biological target: T4, eEF-2K(h) (Homo sapiens, UniProt O00418); assay: Kinase selectivity panel: eEF-2K; assay type: biochemical
T4 construct: purchased Eurofins (Millipore) KinaseProfiler Diversity Panel
Description: as §1

Fyn(h) = biological target: T5, Fyn(h) (Homo sapiens, UniProt P06241); assay: Kinase selectivity panel: Fyn; assay type: biochemical
T5 construct: purchased Eurofins (Millipore) KinaseProfiler Diversity Panel
Description: as §1

IRAK1(h) = biological target: T6, IRAK1(h) (Homo sapiens, UniProt P51617); assay: Kinase selectivity panel: IRAK1; assay type: biochemical
T6 construct: purchased Eurofins (Millipore) KinaseProfiler Diversity Panel
Description: as §1

PKCα(h) = biological target: T7, PKCα(h) (Homo sapiens, UniProt P17252); assay: Kinase selectivity panel: PKCα; assay type: biochemical; settings: 1 µM
T7 construct: purchased Eurofins (Millipore) KinaseProfiler Diversity Panel
Description: as §1

PKCθ(h) = biological target: T8, PKCθ(h) (Homo sapiens, UniProt Q04759); assay: Kinase selectivity panel: PKCθ; assay type: biochemical
T8 construct: purchased Eurofins (Millipore) KinaseProfiler Diversity Panel
Description: as §1

TAK1(h) = biological target: T9, TAK1(h) (Homo sapiens, UniProt O43318); assay: Kinase selectivity panel: TAK1; assay type: biochemical; settings: 1 µM
T9 construct: purchased Eurofins (Millipore) KinaseProfiler Diversity Panel
Description: as §1

T2 sequence (Q06187 whole entry): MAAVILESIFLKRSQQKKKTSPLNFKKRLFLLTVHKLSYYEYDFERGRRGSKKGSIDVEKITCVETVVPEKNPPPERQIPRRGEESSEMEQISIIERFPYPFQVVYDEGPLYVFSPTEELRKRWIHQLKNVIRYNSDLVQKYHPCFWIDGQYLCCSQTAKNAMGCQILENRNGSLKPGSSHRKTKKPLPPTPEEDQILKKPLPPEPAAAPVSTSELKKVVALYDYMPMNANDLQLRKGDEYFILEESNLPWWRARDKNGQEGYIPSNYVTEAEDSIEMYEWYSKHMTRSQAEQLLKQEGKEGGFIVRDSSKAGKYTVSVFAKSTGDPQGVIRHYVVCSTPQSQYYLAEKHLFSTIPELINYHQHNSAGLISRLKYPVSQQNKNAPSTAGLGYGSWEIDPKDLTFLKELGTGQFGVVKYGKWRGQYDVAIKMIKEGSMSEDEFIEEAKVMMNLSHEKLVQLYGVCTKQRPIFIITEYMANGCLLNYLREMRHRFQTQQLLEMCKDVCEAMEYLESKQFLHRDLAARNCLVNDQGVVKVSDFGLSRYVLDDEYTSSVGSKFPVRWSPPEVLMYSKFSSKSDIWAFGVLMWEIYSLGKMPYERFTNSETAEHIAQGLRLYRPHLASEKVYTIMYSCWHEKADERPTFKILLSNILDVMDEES
T5 sequence (P06241 whole entry): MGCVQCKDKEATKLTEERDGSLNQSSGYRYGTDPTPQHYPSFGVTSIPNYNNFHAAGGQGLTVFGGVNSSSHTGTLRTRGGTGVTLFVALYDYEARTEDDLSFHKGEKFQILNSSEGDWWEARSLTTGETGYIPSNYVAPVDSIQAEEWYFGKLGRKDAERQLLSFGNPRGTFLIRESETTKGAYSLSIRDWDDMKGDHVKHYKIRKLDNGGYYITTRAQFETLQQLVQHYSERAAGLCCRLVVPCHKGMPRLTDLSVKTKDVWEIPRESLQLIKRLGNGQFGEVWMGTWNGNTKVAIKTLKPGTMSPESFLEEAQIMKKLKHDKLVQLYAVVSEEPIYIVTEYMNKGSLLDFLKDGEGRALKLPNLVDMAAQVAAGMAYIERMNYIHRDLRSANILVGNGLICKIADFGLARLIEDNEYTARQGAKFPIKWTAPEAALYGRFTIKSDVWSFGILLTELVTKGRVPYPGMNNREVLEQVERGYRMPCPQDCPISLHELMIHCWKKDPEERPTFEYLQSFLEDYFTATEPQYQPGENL
T4 sequence (O00418 whole entry): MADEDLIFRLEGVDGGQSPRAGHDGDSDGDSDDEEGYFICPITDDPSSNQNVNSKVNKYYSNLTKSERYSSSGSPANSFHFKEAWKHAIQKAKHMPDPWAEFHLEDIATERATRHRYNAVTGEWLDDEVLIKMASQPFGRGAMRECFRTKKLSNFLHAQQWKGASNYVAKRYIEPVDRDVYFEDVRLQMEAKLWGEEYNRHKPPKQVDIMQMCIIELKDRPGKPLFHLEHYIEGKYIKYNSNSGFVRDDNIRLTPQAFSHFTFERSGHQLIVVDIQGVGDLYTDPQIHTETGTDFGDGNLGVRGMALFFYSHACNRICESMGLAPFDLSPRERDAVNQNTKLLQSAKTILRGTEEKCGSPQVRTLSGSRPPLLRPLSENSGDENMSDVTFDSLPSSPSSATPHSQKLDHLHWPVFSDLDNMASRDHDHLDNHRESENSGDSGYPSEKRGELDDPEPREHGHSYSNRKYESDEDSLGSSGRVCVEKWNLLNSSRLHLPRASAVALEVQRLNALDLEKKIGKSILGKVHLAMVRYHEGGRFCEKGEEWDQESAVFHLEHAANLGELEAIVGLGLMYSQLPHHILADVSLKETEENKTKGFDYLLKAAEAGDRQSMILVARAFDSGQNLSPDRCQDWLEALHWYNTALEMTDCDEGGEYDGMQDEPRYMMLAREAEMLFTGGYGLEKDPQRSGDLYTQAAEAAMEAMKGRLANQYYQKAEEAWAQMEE
T1 sequence (Q9UM73 19-1620): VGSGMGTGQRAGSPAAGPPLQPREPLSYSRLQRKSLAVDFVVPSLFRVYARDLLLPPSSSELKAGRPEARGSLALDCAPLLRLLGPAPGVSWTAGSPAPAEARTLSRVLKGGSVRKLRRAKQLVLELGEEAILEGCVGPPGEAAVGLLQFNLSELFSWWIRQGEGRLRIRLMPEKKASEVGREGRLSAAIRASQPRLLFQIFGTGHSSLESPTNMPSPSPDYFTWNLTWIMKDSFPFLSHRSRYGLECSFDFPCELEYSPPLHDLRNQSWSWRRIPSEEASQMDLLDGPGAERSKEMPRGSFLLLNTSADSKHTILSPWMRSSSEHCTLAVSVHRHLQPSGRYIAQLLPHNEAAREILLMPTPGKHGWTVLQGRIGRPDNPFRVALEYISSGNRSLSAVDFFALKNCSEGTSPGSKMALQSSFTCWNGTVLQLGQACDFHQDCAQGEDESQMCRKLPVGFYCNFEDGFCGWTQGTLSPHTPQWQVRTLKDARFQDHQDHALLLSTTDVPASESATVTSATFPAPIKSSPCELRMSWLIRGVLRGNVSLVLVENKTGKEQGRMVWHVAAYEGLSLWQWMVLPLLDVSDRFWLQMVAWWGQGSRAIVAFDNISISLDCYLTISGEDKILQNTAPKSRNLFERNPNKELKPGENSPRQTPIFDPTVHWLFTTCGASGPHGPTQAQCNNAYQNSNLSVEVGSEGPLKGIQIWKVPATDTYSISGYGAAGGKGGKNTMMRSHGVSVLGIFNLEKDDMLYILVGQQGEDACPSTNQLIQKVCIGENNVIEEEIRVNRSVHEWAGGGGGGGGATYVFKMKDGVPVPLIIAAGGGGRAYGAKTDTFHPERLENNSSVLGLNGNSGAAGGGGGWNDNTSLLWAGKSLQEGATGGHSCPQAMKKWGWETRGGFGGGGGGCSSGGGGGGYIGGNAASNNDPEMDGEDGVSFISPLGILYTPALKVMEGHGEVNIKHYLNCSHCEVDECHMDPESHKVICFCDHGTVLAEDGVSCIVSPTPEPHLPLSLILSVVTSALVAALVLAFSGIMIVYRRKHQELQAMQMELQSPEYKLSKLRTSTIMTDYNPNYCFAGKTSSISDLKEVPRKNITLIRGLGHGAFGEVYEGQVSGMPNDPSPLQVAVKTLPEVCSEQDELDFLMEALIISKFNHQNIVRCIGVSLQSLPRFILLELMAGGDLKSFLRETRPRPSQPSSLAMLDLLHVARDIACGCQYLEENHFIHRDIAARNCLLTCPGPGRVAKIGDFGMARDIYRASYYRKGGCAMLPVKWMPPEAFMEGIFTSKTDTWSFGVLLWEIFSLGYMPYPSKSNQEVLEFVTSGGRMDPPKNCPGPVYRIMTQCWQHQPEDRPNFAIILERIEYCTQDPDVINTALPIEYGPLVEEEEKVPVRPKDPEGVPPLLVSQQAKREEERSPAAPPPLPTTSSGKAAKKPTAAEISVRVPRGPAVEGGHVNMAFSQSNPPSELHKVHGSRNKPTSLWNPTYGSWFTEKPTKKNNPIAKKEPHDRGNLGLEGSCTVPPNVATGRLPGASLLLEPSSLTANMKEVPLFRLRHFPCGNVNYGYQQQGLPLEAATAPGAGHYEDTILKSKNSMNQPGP
T3 sequence (P50613 whole entry): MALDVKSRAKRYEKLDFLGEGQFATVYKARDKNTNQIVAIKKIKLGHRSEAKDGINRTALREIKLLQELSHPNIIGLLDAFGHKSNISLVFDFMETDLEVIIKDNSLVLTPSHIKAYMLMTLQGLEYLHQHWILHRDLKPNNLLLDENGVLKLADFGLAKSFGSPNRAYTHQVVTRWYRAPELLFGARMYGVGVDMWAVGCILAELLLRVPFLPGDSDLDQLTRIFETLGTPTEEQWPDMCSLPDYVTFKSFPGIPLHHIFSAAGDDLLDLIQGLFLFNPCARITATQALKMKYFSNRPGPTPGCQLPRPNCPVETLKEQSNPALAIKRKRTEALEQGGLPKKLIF
T3 sequence (P51946 whole entry partner): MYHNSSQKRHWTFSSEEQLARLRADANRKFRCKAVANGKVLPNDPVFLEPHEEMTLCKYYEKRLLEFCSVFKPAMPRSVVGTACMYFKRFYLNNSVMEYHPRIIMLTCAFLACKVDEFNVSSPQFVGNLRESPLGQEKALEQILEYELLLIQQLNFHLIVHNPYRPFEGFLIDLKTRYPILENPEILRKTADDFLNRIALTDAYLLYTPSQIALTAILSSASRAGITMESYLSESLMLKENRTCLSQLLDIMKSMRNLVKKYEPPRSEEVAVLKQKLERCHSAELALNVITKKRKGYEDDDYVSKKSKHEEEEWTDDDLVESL
T3 sequence (P51948 whole entry partner): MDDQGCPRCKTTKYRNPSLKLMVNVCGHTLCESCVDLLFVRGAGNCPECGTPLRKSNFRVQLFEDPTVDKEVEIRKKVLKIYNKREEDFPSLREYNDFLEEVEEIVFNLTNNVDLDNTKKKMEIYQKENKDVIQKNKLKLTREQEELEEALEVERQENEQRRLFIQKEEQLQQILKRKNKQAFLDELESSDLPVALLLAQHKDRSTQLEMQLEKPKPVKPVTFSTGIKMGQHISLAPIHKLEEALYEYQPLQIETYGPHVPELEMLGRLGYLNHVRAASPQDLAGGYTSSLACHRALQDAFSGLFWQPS
T9 sequence (O43318 1-303 limits assumed): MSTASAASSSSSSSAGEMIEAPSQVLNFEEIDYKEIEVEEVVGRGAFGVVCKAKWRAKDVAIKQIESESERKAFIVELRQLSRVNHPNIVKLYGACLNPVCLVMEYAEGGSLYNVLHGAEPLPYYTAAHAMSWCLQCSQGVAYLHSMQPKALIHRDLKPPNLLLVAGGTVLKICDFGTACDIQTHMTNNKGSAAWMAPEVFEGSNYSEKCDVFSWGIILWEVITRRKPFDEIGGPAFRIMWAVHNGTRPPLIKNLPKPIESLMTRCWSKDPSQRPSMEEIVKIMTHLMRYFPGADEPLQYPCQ

## c1cc(-c2ccc3nccc(Nc4ccc5scnc5c4)c3c2)ccn1 [Compound 14, N-(6-(pyridin-4-yl)quinolin-4-yl)benzo[d]thiazol-5-amine]
[1]
  inhibition of MDP-induced TNF-α secretion: strong inhibitory activity on MDP-induced TNF-α secretion with a dose-dependent manner
ALK(h)
  ALK remaining activity (% of control): 77
BTK(h); 1 µM
  remaining BTK activity (% of control): 4
BTK(h); at 1 µM
  inhibition at 1 µM: > 90%
CDK7/cyclinH/MAT1(h)
  CDK7/cyclinH/MAT1(h), 14 @ 1 µM: 83
eEF-2K(h)
  remaining kinase activity (% of control) with compound 14 at 1 µM: 102
Fyn(h); 1 µM
  Fyn remaining activity (%): 0
Fyn(h); at 1 µM
  inhibition at 1 µM: > 90%
IRAK1(h)
  IRAK1 remaining activity (% of control) with compound 14 at 1 µM: 91
PKCα(h)
  % remaining kinase activity: 94
PKCθ(h)
  remaining kinase activity (% of control) at 1 µM: 74
TAK1(h)
  Remaining kinase activity (% of control): 90
